Measurements published in patent US20080145375A1, “Vaccination” (Glaxo Group Limited, priority 2003, published 2008).

How the values were obtained:
[1] = test system: mice immunised with p731-RNG (GW825780X); test: IFNγ Elispot after PMID immunisation with p731-RNG, imiquimod at 0 h or 24 h; assay type: in vivo, mouse; settings: application 24 h post immunisation; 2×0.5 ug p731-RNG by PMID; spleens day 14; GAG CD8 peptide AMQMLKETI; FIG. 5
Description: (§1) Plasmid DNA was precipitated onto 2 μm diameter gold beads using calcium chloride and spermidine. Equal amounts of plasmids encoding antigen (p7313OVAcyt, p7313RNG, pVAC7VNTRMuc1, pVAC7VNTRMuc1-PADRE or pVAC7VNTRMuc1-HepB) and p7313GMCSF plasmids were mixed and co-precipitated so that all beads were coated with a mixture of the 2 plasmids ensuring delivery of both plasmids to the same cell. Unless otherwise stated both the antigen and GMCSF were loaded at 0.5 ug/cartridge. Where lower doses of antigen were used the GMCSF loading remained at 0.5 ug and the total DNA on the cartridge was adjusted to 1 ug using p7313empty or pVACempty plasmids. Loaded beads were coated onto Tefzel tubing as described in, for example, Eisenbraum, et al. 1993. DNA Cell Biol. 12:791-797; Pertmer et al, 1996 J. Virol. 70:6119-6125). Particle bombardment was performed using the Accell gene delivery (PCT WO 95/19799; incorporated herein by reference). […]
(§2) Cells were removed from the plates by washing once with water (with 1 minute soak to ensure lysis of cells) and three times with PBS. […] Spots were enumerated using an image analysis system devised by Brian Hayes, Asthma Cell Biology unit, GSK or the AID Elispot reader (Cadama Biomedical, UK). […]
Spleens were harvested at day 14 post immunisation and the cellular responses analysed by IFNγ Elispot following stimulation with a GAG balb/c CD8 9mer peptide: AMQMLKETI.

[2] = test system: C56BI/6 mice immunised with p7313OVAcyt; test: ELISPOT after primary PMID immunisation with p7313OVAcyt; assay type: in vivo, mouse; settings: delivered singly with p7313 OVAcyt; Day 7 post primary immunisation; FIG. 8
Description: as §1, with “reference). Female C56BI/6 mice were immunised with 2 administrations of plasmid at each time point as detailed in the results section, one on each side of the abdomen after shaving.” for “reference).”
as §2

[3] = test system: mice immunised with pVAC7VNTR muc1; test: Elispot of Muc1 CD4 responses after immunisation with pVAC7VNTR muc1; assay type: in vivo, mouse; settings: immunised days 0 and 21; day 7 post boost; compared to pVAC 7VNTRMuc1 alone; FIG. 12
Description: For OVA assays peptide SIINFEKL, a dominant CD8 peptide of OVA, was used in assays at a final concentration of 50 nM to measure CD8 responses and peptide […] was used at a final concentration of 10 μM to measure CD4 responses. For ICS assays Ovalbumin protein was also used to measure CD4 responses at 1 mg/ml. For ELISPOT to detect responses to p7313RNG peptide the CD8 peptide AMQMLKETI was used for stimulation. For detecting responses to Muc1, CD4 peptides […] and […] were used at 10 uM, and CD8 peptide SAPDNRPAL was used at 10 nM. The 9-mer peptides used to follow CD8 responses to Gag and RT in mice were […] (Gag CD8) and YYPDSKDLI (RT CD8) respectively, and CD4 responses to Gag and RT were followed using […] (Gag CD4) and […] (RT CD4) respectively. Peptide […] (Nef 218) was also tested. These peptides were tested at a final concentration of 10 μM. The peptides were obtained from Genemed Synthesis, South San Francisco.
Experiments were carried out to determine the effect of GMCSF and Imiquimod treatment on responses to pVAC7VNTR Muc1. Mice were immunised at days 0 and 21 with pVAC7VNTR muc1. This was delivered alone, co-delivered with p7313GMCSF, or with p7313GMCSF and Imiquimod application at 24 hours post immunisation. Spleens were harvested at day 7 post boost and analysed by Elispot following overnight stimulation with Muc1 CD4 peptides.

[4] = test system: C57/bl6 mice immunised with OVAcyt; test: In vivo cytotoxicity assay (SIINFEKL pulsed CSFE labelled splenocytes); set-up: species or system mouse; settings: 3 mice per group; Day 7, 14, 21 and 42 post immunisation; FIG. 18
Description: The effect of GMCSF and Imiquimod on cytotoxic responses to p7313OVA after primary immunisation was also measured by in vivo cytotoxicity assays (FIG. 18). C57/bl6 mice were immunised with either OVAcyt or OVAcyt+GMCSF by PMID. At 24 hours post immunisation imiquimod was applied on the immunisation site. At Day 7, 14, 21 and 42 post immunisation mice were injected i.v. with CSFE labelled splenocytes consisting of [sequence] peptide pulsed and unpulsed in equal numbers. After 2 hours the blood was analysed by flow cytometry and the ratio of pulsed to unpulsed cells remaining was calculated to give a numerical value of cytotoxicity.

[5] = test system: RIP OVAlo mice; test: Breaking tolerance in RIP OVAlo mice; assay type: in vivo, mouse; settings: four immunisations at 3 weeks intervals; SIINFEKL restimulation
From the text: RIP OVAlo mice were used to test the potential for tolerance breaking of the GMCSF+Imiquimod combination (FIG. 20). RIP OVAlo mice express ovalbumin (OVA) on the insulin producing beta cells of the pancreas and are therefore tolerant to this molecule. Disruption of this tolerance results in autoimmune destruction of the beta cells leading to diabetes which can be easily monitored by measurement of glycosuria and blood glucose level. RIPova lo and C57/BL6 mice (wt control group) received four immunisations with empty vector or OVAcyt (using PMID), ±GM-CSF (using PMID), and ±Imiquimod. Immunisations were given at 3 weeks intervals. Imiquimod was applied topically on the site of immunisation 24 h after PMID. 7 Days after the last immunisation splenocytes and serum samples were taken. […] The functional test for tolerance breaking in this model is development of diabetes. This is measured by urine glucose levels.

[6] = test system: TLRs 1-9 mRNA in monocyte derived DC; test: Taqman analysis of TLR expression on IFNγ treated DC; assay type: cell-based, human; settings: DC treated with IFNγ for 24 hours; 3 healthy donors; FIG. 6
Description: Monocytes were isolated from the PBMC of 3 healthy donors and cultured with IL-4 & GM-CSF for 7 days to induce differentiation to immature DC. The DC were then treated with IFNγ for 24 hours. mRNA expression of TLRs 1-9 was then measured by Taqman. In contrast to published reports we have shown that low levels of TLR7 are constitutively expressed on monocyte derived DC. […] The increase in TLR7 expression at 24 hours post stimulation in vitro provides an explanation for the results in FIG. 5 showing the good effect of Imiquimod at 24 hours post immunisation.

Row | Compound | adjuvant effect on cellular responses, IFNγ Elispot [1] | adjuvant effect in Elispot assays [2] | Muc1 CD4 responses (Elispot) [3] | in vivo cytotoxicity [4] | CD8 responses (IFNγ and IL2 production in CD8+ T cells) [5] | mRNA expression of TLR2 [6] | mRNA expression of TLR7 and TLR8 [6]
1 | CC(C)Cn1cnc2c(N)nc3ccccc3c21 [Imiquimod, imiquimod] | good adjuvant effect | adjuvant effects | improved CD4 responses | clear benefit over OVA alone | there are responses |  | 
2 | GMCSF |  | adjuvant effects | improved CD4 responses |  | there are responses |  | 
3 | IFNγ: interferon-gamma used to treat monocyte derived DC for 24 hours |  |  |  |  |  | upregulated but to a lesser extent | expression of TLR8 and increased levels of expression of TLR7 were found in all 3 donors
